Data from patent US20100234455A1, “Histone Deacetylase Inhibitors” (Errant Gene Therapeutics, LLC, priority 2004, published 2010).

How the values were obtained:
[1] = system: LNCaP cells (human prostate cancer cells); assay: p53 acetylation, p21 and Bax effects in LNCaP cells; assay type: cell-based
[2] = system: PC-3 cells; assay: Bax and p21 activation in PC-3 cells (p53-/-, no HDAC2); assay type: cell-based; details: do not express HDAC2
[3] = system: HDAC; details: cited from earlier work
[4] = system: tumors; details: cited from earlier work
[5] = system: rat fibroblasts; details: cited from earlier work

Row | Compound | level of histone acetylation [1] | Bax mitochondrial translocation and cleavage ([1]; LNCaP cells) | cell cycle arrest ([1]; LNCaP cells) | degradation of HDAC2 ([1]; LNCaP cells) | levels of total p53 ([1]; LNCaP cells) | p21 levels ([1]; LNCaP cells) | steady state level of cytosolic Bax ([1]; LNCaP cells) | acetylation of p53 at Lys320 ([1]; Lys320) | acetylation of p53 at Lys373 and Lys382 ([1]; Lys373 and Lys382) | p53 dependent activation of Bax [2] | p53 independent p21 activation [2] | HDAC activity [3] | formation of tumors in mice [4] | cell cycle arrest of rat fibroblasts [5]
1 | O=C(C=CC=CC=Cc1ccccc1)NO [7-phenyl-2,4,6-heptatrienoylhydroxamic acid] | increasing the level of histone acetylation | induced Bax mitochondrial translocation and cleavage | cell cycle arrest, primarily at G2/M interface | induction of selective degradation of HDAC2 | increases the levels of total p53 | p53-dependent increase in p21 levels | increased the steady state level of cytosolic Bax | not Lys320 | stabilizes the acetylation of p53 at amino acids Lys373 and Lys382 | absent | p53 independent p21 activation was observed | – | – | –
2 | O=C(CCCCCCC(=O)Nc1ccccc1)NO [SAHA, suberoylanilide hydroxamic acid] | – | – | – | – | – | – | – | – | – | – | – | HDAC activity is inhibited | prevent the formation of tumors in mice | –
3 | CC(/C=C/C(=O)NO)=C\[C@@H](C)C(=O)c1ccc(N(C)C)cc1 [TSA, trichostatin A] | – | nor did it affect Bax translocation and cleavage | induced p21 and cell cycle arrest | – | – | induced p21 | did not alter Bax levels | – | – | absent | p53 independent p21 activation was observed | HDAC activity is inhibited | prevent the formation of tumors in mice | causes arrest of rat fibroblasts at the G1 and G2 phases of the cell cycle
